Test results: article PMC10177692, “Novel topoisomerase II/EGFR dual inhibitors: design, synthesis and docking studies of naphtho[2′,3′:4,5]thiazolo[3,2-a]pyrimidine hybrids as potential anticancer agents with apoptosis inducing activity” (Journal of Enzyme Inhibition and Medicinal Chemistry, 2023)
Read-outs that look alike come from different tables or passages of the source. Each block holds one compound with its values, some of them ahead of it.

Tests used:
[1] = tested on: MCF-7; assay: MTT anti-proliferative assay; type: cell-based, human; conditions: for IC50: Homo sapiens, MCF7; for fold the activity of erlotinib: MCF-7, ratio of IC50 values
Experimental: (§1) The culture media were supplemented with 10% heat inactivated foetal bovine serum (FBS, HyClone, Thermo Scientific) and antibiotics (100 U/ml penicillin and 100 µg/ml streptomycin, HyClone, Thermo Scientific). The cells were incubated in a humidified atmosphere containing 5% CO2 (Heracell VIOS CO2 incubator, Thermo Scientific) in air at 37 °C.
(§2) MTT reagent, at volume equal to 10% of the culture medium volume, was added to the cultured cells and to the blank wells. The culture plates were re-incubated for 2–4 h depending on cell type and density. After the incubation period, culture plates were restored from the incubator and the obtained formazan crystals were dissolved in acidified isopropanol with continuous shaking using plate shaker (MaxQ 2000, Thermo Fisher Scientific Inc., MI, USA) at room temperature. Absorbance was measured spectrophotometrically at wavelength 570 nm using a plate reader (Stat FaxR 4200, Awareness Technology, Inc., FL, USA). […] Three independent experiments were performed for each compound and Mean ± SE were calculated.

[2] = tested on: HCT-116; assay: MTT anti-proliferative assay; type: cell-based, human; conditions: Homo sapiens, HCT-116; MTT, 24 h, mean ± SE of three experiments; read-out: IC50 (µM) ± S.E. HCT-116
Experimental: as §1, §2

[3] = tested on: A549; assay: MTT anti-proliferative assay; type: cell-based, human; conditions: for IC50: Homo sapiens, A549, MTT, 24 h, mean ± SE of three experiments, read-out: IC50 (µM) ± S.E. A549; for fold the activity of erlotinib: A549, ratio of IC50 values
Experimental: as §1, §2

[4] = tested on: caspase-7; assay: Caspase-7 ELISA in MCF-7 cells; type: cell-based, human; conditions: for Caspase 7 FLD: MCF-7, at IC50, fold of control; for Caspase 7 Conc.(ng/ml): MCF-7, at IC50, control 0.45 ± 0.03
Experimental: (§3) The effect of 6a, 6c and 6i hybrids on caspase-7 and −9 levels in MCF-7 cell line was measured using Human Caspase-7 ELISA Kit (BioVision Inc., Milpitas, CA 95035 USA) and Human Caspase-9 ELISA Kit (EIA-4860, DRG, USA), respectively, and according to the manufacturer’s instructions. The results were expressed as Mean ± SE of three independent experiments.

[5] = tested on: Bax; assay: Bax level ELISA in MCF-7 cells; type: cell-based, human; conditions: for Bax Conc.(pg/ml): MCF-7, at IC50, 24 h, control 83.16 ± 6.2; for Bax FLD: MCF-7, at IC50, fold of control cells
Experimental: (§4) MCF-7 cells were cultured in DMEM supplied with 10% FBS and incubated in 5% CO2 in air at 37 °C. […] Cell lysate was diluted using standard diluent buffer over the range of assay. Bax and Bcl-2 content in the lysate was assessed using human Bax ELISA kit (DRG, USA) and Bcl-2 ELISA Kit (Zymed Laboratories, Invitrogen Immuno-detection, Canada), respectively, according to the manufacturer’s instructions for each kit. The results were expressed as Mean ± SE of three independent experiments.

[6] = tested on: caspase-9; assay: Caspase-9 ELISA in MCF-7 cells; type: cell-based, human; conditions: for Caspase 9 FLD: MCF-7, at IC50, fold of control; for Caspase 9 Conc.(pg/ml): MCF-7, at IC50, control 4.51 ± 0.29
Experimental: as §3

[7] = tested on: p53; assay: p53 level ELISA in MCF-7 cells; type: cell-based, human; conditions: for p53 FLD: MCF-7, at IC50, fold of control cells; for p53 Conc.(pg/ml): MCF-7, at IC50, control 257 ± 19.1
Experimental: p53 level was determined in MCF-7 cell line using Human p53 ELISA Kit (Sigma Aldrich, St. Louis, MO, USA). The cells were lysed using cell extraction buffer. Cell lysate was diluted with standard diluent buffer, then added to p53 monoclonal antibody pre-coated 96-wells plate. The plate incubated for 2 h at room temperature. Anti-p53 detection antibody was added to the plate and re-incubated at room temperature for 1 h. The plate washed four times using wash buffer followed by addition of anti-rabbit IgG-Horseradish Peroxidase (HRP) working solution. The plate incubated at room temperature for 30 min. Chromogen TMB (tetramethylbenzidine) was added to induce colour reaction. The absorbance of the plate was read at 450 nm using microplate reader (Bio-Rad Laboratories, Hercules, CA, USA). Three independent experiments were performed for each compound and Mean ± SE were calculated.

[8] = tested on: Bcl-2; assay: Bcl-2 level ELISA in MCF-7 cells; type: cell-based, human; conditions: for Bcl-2 Conc.(ng/ml): MCF-7, at IC50, 24 h, control 6.56 ± 0.22; for Bcl-2 FLD: MCF-7, at IC50, fold of control cells
Experimental: as §4

[9] = molecular target: T1, EGFR (Homo sapiens, UniProt P00533); assay: EGFR kinase assay kit; type: biochemical; conditions: mean ± SE; read-out: EGFR inhibitory activity IC50
T1 construct: purchased BPS Bioscience, San Diego, CA, USA
T1 sequence (P00533 25-1210): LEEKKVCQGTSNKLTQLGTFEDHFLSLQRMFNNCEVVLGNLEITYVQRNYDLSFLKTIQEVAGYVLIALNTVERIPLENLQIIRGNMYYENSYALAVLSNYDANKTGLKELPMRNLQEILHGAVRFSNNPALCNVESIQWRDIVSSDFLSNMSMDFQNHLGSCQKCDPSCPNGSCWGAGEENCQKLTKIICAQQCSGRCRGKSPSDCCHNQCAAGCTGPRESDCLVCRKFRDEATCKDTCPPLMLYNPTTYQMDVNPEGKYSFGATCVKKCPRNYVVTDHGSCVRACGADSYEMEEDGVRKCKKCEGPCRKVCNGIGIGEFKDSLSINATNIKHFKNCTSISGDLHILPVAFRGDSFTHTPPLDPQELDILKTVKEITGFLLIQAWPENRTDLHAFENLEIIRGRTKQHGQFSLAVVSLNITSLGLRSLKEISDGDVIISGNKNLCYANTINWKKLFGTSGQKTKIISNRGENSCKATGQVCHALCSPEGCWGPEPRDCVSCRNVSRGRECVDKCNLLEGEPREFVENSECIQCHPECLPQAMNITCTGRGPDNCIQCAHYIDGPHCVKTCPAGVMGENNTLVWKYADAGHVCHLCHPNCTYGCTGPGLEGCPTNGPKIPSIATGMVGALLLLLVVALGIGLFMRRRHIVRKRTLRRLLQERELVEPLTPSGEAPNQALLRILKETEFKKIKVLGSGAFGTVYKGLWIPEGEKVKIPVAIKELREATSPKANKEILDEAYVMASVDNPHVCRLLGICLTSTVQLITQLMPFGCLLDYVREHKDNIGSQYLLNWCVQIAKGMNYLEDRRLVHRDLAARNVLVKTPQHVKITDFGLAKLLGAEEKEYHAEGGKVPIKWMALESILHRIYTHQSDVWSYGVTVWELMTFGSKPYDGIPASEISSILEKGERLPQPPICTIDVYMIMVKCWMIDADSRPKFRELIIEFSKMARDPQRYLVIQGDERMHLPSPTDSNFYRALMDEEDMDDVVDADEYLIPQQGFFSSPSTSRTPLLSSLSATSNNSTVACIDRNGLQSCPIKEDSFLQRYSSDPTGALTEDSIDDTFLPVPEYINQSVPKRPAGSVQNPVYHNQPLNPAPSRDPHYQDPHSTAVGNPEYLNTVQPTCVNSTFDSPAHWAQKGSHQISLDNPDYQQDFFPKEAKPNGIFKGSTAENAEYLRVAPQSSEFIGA
Experimental: The kinase activity of EGFR was assessed for 6a, 6c and 6i hybrids using EGFR kinase assay kit (BPS Bioscience, San Diego, CA, USA) based on the manufacturer’s instructions. Three independent experiments were performed for each compound and Mean ± SE were calculated.

[10] = molecular target: T2, topoisomerase IIα (Homo sapiens, UniProt P11388); assay: Topoisomerase IIα inhibitory activity (ELISA kit); type: cell-based; conditions: MCF-7 cell line; for % inhibition of topoisomerase IIα activity: compounds at their IC50, compared to control
T2 construct: it decreases the concentration of topoisomerase iIα in MCF-7 cell line to 1.043 ± 0.10 ng/ml; endogenous in cells; host or cells: MCF-7
T2 sequence (P11388 whole entry): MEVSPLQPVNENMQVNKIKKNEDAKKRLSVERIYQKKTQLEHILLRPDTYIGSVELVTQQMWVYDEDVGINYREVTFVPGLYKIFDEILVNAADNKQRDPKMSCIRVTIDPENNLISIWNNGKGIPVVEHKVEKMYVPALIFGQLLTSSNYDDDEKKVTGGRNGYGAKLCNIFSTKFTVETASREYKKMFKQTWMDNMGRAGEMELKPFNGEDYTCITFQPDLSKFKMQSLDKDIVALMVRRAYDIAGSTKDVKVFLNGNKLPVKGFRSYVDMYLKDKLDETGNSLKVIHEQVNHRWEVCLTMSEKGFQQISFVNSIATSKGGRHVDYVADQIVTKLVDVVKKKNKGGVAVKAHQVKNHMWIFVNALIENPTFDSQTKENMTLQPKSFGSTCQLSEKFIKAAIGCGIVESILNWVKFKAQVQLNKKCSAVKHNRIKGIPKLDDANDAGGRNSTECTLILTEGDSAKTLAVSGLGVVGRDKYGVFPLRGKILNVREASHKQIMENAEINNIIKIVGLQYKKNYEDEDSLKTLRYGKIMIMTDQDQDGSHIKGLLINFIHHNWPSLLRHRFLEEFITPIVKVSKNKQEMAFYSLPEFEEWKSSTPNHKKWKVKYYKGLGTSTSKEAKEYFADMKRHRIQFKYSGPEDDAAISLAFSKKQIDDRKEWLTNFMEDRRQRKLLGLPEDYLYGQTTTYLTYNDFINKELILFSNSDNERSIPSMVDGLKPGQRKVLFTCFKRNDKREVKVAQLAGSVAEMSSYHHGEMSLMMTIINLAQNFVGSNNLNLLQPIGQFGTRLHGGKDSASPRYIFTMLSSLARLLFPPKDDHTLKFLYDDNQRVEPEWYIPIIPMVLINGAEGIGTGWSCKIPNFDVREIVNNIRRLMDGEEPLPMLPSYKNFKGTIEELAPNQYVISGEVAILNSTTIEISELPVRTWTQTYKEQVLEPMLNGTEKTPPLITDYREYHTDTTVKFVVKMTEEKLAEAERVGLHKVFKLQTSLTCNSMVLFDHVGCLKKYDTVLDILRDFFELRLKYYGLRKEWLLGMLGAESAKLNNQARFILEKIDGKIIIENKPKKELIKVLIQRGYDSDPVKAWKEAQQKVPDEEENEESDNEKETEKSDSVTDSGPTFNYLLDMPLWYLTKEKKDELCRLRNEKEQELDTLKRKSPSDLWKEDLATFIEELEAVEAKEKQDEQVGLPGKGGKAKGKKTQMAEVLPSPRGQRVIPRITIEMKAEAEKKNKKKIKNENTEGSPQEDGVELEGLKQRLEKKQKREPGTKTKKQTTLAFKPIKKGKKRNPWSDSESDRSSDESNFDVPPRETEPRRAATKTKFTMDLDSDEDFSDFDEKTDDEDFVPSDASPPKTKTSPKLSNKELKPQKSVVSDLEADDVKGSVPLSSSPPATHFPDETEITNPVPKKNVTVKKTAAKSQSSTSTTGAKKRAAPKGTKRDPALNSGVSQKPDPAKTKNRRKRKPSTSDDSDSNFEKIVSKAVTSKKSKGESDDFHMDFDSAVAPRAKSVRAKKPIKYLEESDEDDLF
Experimental: Biotin-conjugated antibody was added to each well followed by incubation at 37 °C for 1 h, then the plates were aspirated. Avidin conjugated Horseradish Peroxidase (HRP avidin) solution was added to each well, incubated again at 37 °C for 1 h. TMB substrate was added to the wells and the plate was incubated at 37 °C for 30 min at dark place. The absorbance was read using spectrophotometer at a wavelength of 450 nm.

[11] = molecular target: T3, topoisomerase II (Homo sapiens, UniProt P11388); assay: DNA topo II inhibition assay (kDNA, agarose gel); type: biochemical; conditions: 10 µM, with topo II
T3 construct: purchased Topogen, USA
T3 sequence (P11388 whole entry): as above
Experimental: Using the procedure outlined in topoisomerase II Drug Screening Kit (Topogen, USA), the effect of 6a, 6c and 6i on topoisomerase II inhibition and the effectiveness of catenated/decatenated kDNA formation were examined. The reaction mixture includes 10 mM MgCl2, 50 mM Tris-HCl, 0.5 mM dithiothreitol, […]/ml bovine serum albumin, 200–300 ng of kDNA and topoisomerase II. […] After the reaction samples were incubated for 30 min at 37 °C, the reaction was stopped by adding […] of a stop buffer containing 10% (w/v) SDS and […] of 0.5 mg/ml proteinase followed by incubating the mixture for 10 min at 37 °C. The reaction mixture was separated by 1% agarose gel and examined after being stained with ethidium bromide.

[12] = MTT, 24 h, mean ± SE of three experiments, read-out: IC50 (µM) ± S.E. MCF-7
[13] = MCF-7, concentration used for treatment, read-out: IC50 (Table 2)
[14] = MCF-7, concentration used for treatment, read-out: IC50 (Table 3)

IC50 [1, 12]: 7.26 ± 0.2 µM | IC50 [2]: 8.64 ± 0.18 µM | IC50 [3]: 5.19 ± 0.36 µM
SMILES: C#Cc1cccc(Nc2ncnc3cc(OCCOC)c(OCCOC)cc23)c1 [Erlotinib, erlotinib, reference compound]

SMILES: N#Cc1c(-c2ccc(Br)cc2)nc2sc3c(n2c1=O)C(=O)c1ccccc1C3=O [Compound 6d, 2–(4-Bromophenyl)-4,6,11-trioxo-6,11-dihydro-4H-naphtho[’',’':4,5]thiazolo-[3,2-a]pyrimidine-3-carbonitrile]
IC50 [1, 12]: 5.66 ± 0.29 µM | fold the activity of erlotinib [1]: 1.28 fold | IC50 [2]: 11.77 ± 0.11 µM | fold the activity of erlotinib [3]: 1.60 fold | IC50 [3]: 3.25 ± 0.31 µM

IC50 [1, 12]: 5.14 ± 0.32 µM | IC50 [2]: 9.81 ± 0.65 µM | IC50 [3]: 5.72 ± 0.37 µM
SMILES: N#Cc1c(-c2ccc(Cl)cc2)nc2sc3c(n2c1=O)C(=O)c1ccccc1C3=O [Compound 6e, 2–(4-Chlorophenyl)-4,6,11-trioxo-6,11-dihydro-4H-naphtho[’',’':4,5]thiazolo-[3,2-a]pyrimidine-3-carbonitrile]

IC50 [1, 12]: 37.9 ± 2.25 µM | IC50 [2]: 56.2 ± 4.11 µM | IC50 [3]: 21.2 ± 1.23 µM
SMILES: CN(C)c1ccc(-c2nc3sc4c(n3c(=O)c2C#N)C(=O)c2ccccc2C4=O)cc1 [Compound 6h, 2–(4-(Dimethylamino)phenyl)-4,6,11-trioxo-6,11-dihydro-4H-naphtho-[’',’':4,5]thiazolo[3,2-a]pyrimidine-3-carbonitrile]

IC50 [1, 13]: 4.42 µM | IC50 [1, 14]: 4.42 µM | IC50 [1, 12]: 4.42 ± 0.35 µM | IC50 [2]: 3.66 ± 0.39 µM | IC50 [3]: 3.65 ± 0.25 µM | IC50 [9]: 0.0447 ± 0.00082 µM | % inhibition of topoisomerase IIα activity [10]: 11.30%
SMILES: COc1ccc(-c2nc3sc4c(n3c(=O)c2C#N)C(=O)c2ccccc2C4=O)cc1OC [Compound 6c, 2–(3,4-Dimethoxyphenyl)-4,6,11-trioxo-6,11-dihydro-4H-naphtho[’',’':4,5]-thiazolo[3,2-a]pyrimidine-3-carbonitrile]
Caspase 7 FLD [4]: 4.20 fold | Caspase 7 Conc.(ng/ml) [4]: 1.89 ± 0.02 ng/mL | Bax Conc.(pg/ml) [5]: 372.7 ± 9.4 pg/mL | Bax FLD [5]: 4.48 fold | Caspase 9 FLD [6]: 3.03 fold | Caspase 9 Conc.(pg/ml) [6]: 13.68 ± 0.42 pg/mL | p53 FLD [7]: 2.6 fold | p53 Conc.(pg/ml) [7]: 678 ± 42.3 pg/mL | Bcl-2 Conc.(ng/ml) [8]: 2.17 ± 0.36 ng/mL | Bcl-2 FLD [8]: 0.33 fold | linear DNA formation from catenated kDNA [11]: the production of linear DNA was not noticed

SMILES: N#Cc1c(-c2ccc(F)cc2)nc2sc3c(n2c1=O)C(=O)c1ccccc1C3=O [Compound 6b, 2–(4-Fluorophenyl)-4,6,11-trioxo-6,11-dihydro-4H-naphtho[’',’':4,5]thiazolo-[3,2-a]pyrimidine-3-carbonitrile]
IC50 [1, 12]: 4.78 ± 0.36 µM | fold the activity of erlotinib [1]: 1.52 fold | IC50 [2]: 11.5 ± 0.12 µM | fold the activity of erlotinib [3]: 1.23 fold | IC50 [3]: 4.2 ± 0.41 µM

IC50 [1, 12]: 29.1 ± 1.56 µM | IC50 [2]: 26.8 ± 1.78 µM | IC50 [3]: 38.3 ± 3.21 µM
SMILES: COc1cc(-c2nc3sc4c(n3c(=O)c2C#N)C(=O)c2ccccc2C4=O)cc(OC)c1OC [Compound 6f, 4,6,11-Trioxo-2–(3,4,5-trimethoxyphenyl)-6,11-dihydro-4H-naphtho[’',’':4,5]-thiazolo[3,2-a]pyrimidine-3-carbonitrile]

SMILES: COc1cccc2c1C(=O)c1c(O)c3c(c(O)c1C2=O)C[C@@](O)(C(=O)CO)C[C@@H]3O[C@H]1C[C@H](N)[C@H](O)[C@H](C)O1 [Dox, Doxorubicin, reference compound]
IC50 [1, 13]: 5.62 µM | IC50 [1, 14]: 5.62 µM | IC50 [1, 12]: 5.62 ± 0.31 µM | IC50 [2]: 6.78 ± 0.44 µM | IC50 [3]: 4.95 ± 0.29 µM | Caspase 7 FLD [4]: 23.2 fold | Caspase 7 Conc.(ng/ml) [4]: 10.44 ± 0.92 ng/mL | Bax Conc.(pg/ml) [5]: 511.2 ± 6.5 pg/mL | Bax FLD [5]: 6.14 fold | Caspase 9 FLD [6]: 6.53 fold | Caspase 9 Conc.(pg/ml) [6]: 29.48 ± 0.25 pg/mL | p53 FLD [7]: 4 fold | p53 Conc.(pg/ml) [7]: 1051 ± 22.6 pg/mL | Bcl-2 Conc.(ng/ml) [8]: 1.66 ± 0.03 ng/mL | Bcl-2 FLD [8]: 0.25 fold | % inhibition of topoisomerase IIα activity [10]: 65.92% | concentration of topoisomerase IIα ([10]; compounds at their IC50, control 3.663 ± 0.09 ng/ml): 1.248 ± 0.09 ng/mL

IC50 [1, 12]: 13.8 ± 1.12 µM | IC50 [2]: 9 ± 0.66 µM | IC50 [3]: 42.2 ± 2.19 µM
SMILES: N#Cc1c(-c2ccccc2)nc2sc3c(n2c1=O)C(=O)c1ccccc1C3=O [Compound 6g, 4,6,11-Trioxo-2-phenyl-6,11-dihydro-4H-naphtho[’',’':4,5]thiazolo[3,2-a]-pyrimidine-3-carbonitrile]
